Measurements published in paper PMC11864180, “Dimeric assembly of F1-like ATPase for the gliding motility of Mycoplasma” (Science Advances, 2025).

Molecular target: T1, G1-ATPase (dimeric F1-like ATPase, twin motor; type 2 ATPase) ([Mycoplasma] mobile, UniProt Q6KIC3+Q6KIC4)
T1 construct: gene atpA; native twin motor isolated from M. mobile cells; two alpha3beta3gamma units with GliD, GliE and PGK; PGK CTD only partly modelled; strain mutation lies in gli521, outside the complex; with F1-like ATPase gamma subunit (G1-gamma); GliD (bridge subunit of G1-ATPase); GliE (G1-ATPase subunit, 112 amino acids); Phosphoglycerate kinase
Experiment: cryo-EM structure of the complex ([…] Å; local […] Å)
Type: binding
Conditions: Mg2+, endogenous nucleotide, isolated without added nucleotide, PBS pH 7.3, 1 mM MgCl2

Structure (SMILES) | cryo-EM structure of the complex (3.2 Å; local 3.1 Å) (catalytic site of alphaHO-betaHO, together with Pi) | cryo-EM structure of the complex (3.2 Å; local 3.1 Å) (catalytic site of alphaC-betaC and the three noncatalytic beta-alpha interfaces)
Nc1ncnc2c1ncn2[C@@H]1O[C@H](COP(=O)(O)OP(=O)(O)O)[C@@H](O)[C@H]1O [Mg-ADP] | αCβC and αHOβHO contained Mg-ATP and Mg-ADP + Pi, respectively | 
Nc1ncnc2c1ncn2[C@@H]1O[C@H](COP(=O)(O)OP(=O)(O)OP(=O)(O)O)[C@@H](O)[C@H]1O [Mg-ATP] |  | Mg-ATP was observed at the remaining three interfaces, hereafter referred to as the β-α interfaces
